Source: patent US20230174581A1, “PROCESSES AND AGENTS FOR GLAUCOMA” (AUFBAU MEDICAL INNOVATIONS LIMITED, priority 2020, published 2023)
Where a name gives a salt, the structure may show the parent alone. Where a SMILES comes first, the peptide text is derived from it. Bridges are numbered along the chain shown (N, C = ends). [ ]: non-standard residue; d: D form. The star is where a group is joined. Octanoyl(6-Me) = CCC(C)CCCCC(=O)*; Dab = NCC[CH](N)C(=O)O

How the values were obtained:
[1] = Relative IOP versus placebo in bovine vitreous humor (BVH) glaucoma model, microfluidic chip device
Experimental: Bovine vitreous after homogenization was used to model human disease because it mimicked elevated IOP in humans.
A solution of the agent compound was prepared by weighing out the compound in a microcentrifuge tube and dissolving the solid material in lx PBS buffer at pH 7.2. For a compound that was less soluble in water, a stock solution was prepared in ethanol or DMSO, and then diluted ten-fold to achieve the final concentration with a 10% ethanol or DMSO vehicle. Heat (37° C.) and vortex mixing were applied to the solution of the compound to facilitate dissolution.
To determine the effect of the compound on intraocular pressure (IOP), the compound was tested in bovine vitreous humor (BVH) glaucoma model in the microfluidic chip device.
A solution of 25% homogenized bovine vitreous humor (BVH) was prepared by diluting 100% homogenized BVH with PBS buffer. 50 uL BVH was aliquoted into 0.5 mL PCR tubes. 50 uL of the solution of the compound was added to the BVH, bringing the BVH total concentration to 12.5%. The sample was briefly vortexed and then incubated at 37° C. overnight. For a control experiment, 50 uL of either PBS buffer or PBS with 10% ethanol or DMSO were prepared and incubated with 25% BVH in the same conditions.
The test BVH solution was introduced into the reservoir of the device. A fluidic probe was attached to the inlet of the microfluidic chip and a flow rate of 2ul/min was established with PBS as the source fluid. Once fluid began exiting from the outlet of the chip and a steady flow of 2 ul/min was achieved, the flow rate and the pressure change within the microfluidic chip were recorded. Baseline flow rate and pressure readings were recorded for 5 minutes, after which 7 ul of the test BVH solution was injected into the chip through a sample injector. Recording of the flow rate and pressure change was continued for 50 additional minutes after the sample injection. Recording was stopped after 55 minutes. The relative change in chip pressure for the entire course of the experiment was plotted on a graph.

[2] = Dose-response of IOP reduction in bovine vitreous humor (BVH) glaucoma model, microfluidic chip device; conditions: 12.5% BVH, incubated at 37° C. for 1 hour; 7 ul injected; read-out: EC50 for treatment of glaucoma in a bovine vitreous model (IOP reduction)
Experimental: Bovine vitreous after homogenization was used to model human disease because it mimicked elevated IOP in humans. […] Once it was added to BVH, the final water concentration was 0.5%. […] Once added to BVH, the final DMSO concentration was 0.5%. […] The pellet was resuspended with PBS and concentrated by 2.5X fold. For treatment of BVH with compound, 25 ul of enriched BVH was added to 25 ul of Compound and incubated for 1 hour in a thermocycler at 37° C., then 5 ul of 5 mM CFSE was added, and the sample incubated in a thermocycler at 37° C. for 30 minutes. EC50 was estimated by plotting the logarithmic functions of the micromolar concentration of the drug in the x axis against the percent of maximal response in the y axis. The maximal response was taken as the value of the response for the highest drug concentration. The response was calculated by taking the absolute difference between the control and test value for each concentration. The compound colistin sulfate was tested in bovine vitreous humor (BVH) glaucoma model in a microfluidic chip device. A solution of 25% homogenized BVH in PBS buffer was prepared and diluted with an equal amount of a solution of the compound, so that the total BVH concentration was 12.5%. The sample was vortexed and incubated at 37° C. for 1 hour. […] The test compound-BVH solution was introduced into the reservoir of the microfluidic chip device and flow rate and pressure change were recorded. Various concentrations of the compound were tested for effects on the treatment of bovine vitreous humor. 7 ul of each test solution was injected into the microfluidic chip through a sample injector. Recording of the flow rate and pressure change was continued for 50 additional minutes after the sample injection. The relative change in chip pressure for the entire course of the experiment was obtained. […] The EC50 value was taken as the point on the x-axis at which the logarithmic function of the micromolar concentration of the compound produced half-maximal response. The logarithmic function of the micromolar concentration of the drug was plotted on the x axis against the percent of maximal response on the y axis. Maximal response was obtained by taking the value of the response for the highest drug concentration. The response was calculated by taking the absolute difference between the control and test value for each concentration.

[3] = Relative IOP in microfluidic device, human glaucoma model (POAG aqueous humor); conditions: pre-incubated at 37° C. for 24 hours, placebo buffered saline
Experimental: The agent was tested by controlling flow and measuring relative IOP using in a device of this invention. The agent was compared against placebo (buffered saline) by preparing each in aqueous humor from a patient with primary open angle glaucoma and pre-incubating at 37° C. for 24 hours. The timepoint of injection into the device is denoted by an arrow and the letter “a.” Referring to FIG. 25, the IOP for placebo (dashed line) increased greatly after injection of the placebo sample. The IOP rose to a maximum pressure of about 40 mm Hg. To the contrary, the IOP after injection of the agent colistin sulfate in human aqueous humor (solid line) was markedly lower than for placebo, up to about 40% lower, and the difference was sustained.
Example 1. Isolation of extracellular matrix bodies in a microfluidic device. […] The microfluidic channel flow rate was held constant at […] per minute, and the baseline system pressure was measured using an external pressure sensor. The human aqueous humor sample was injected at timepoint denoted by an arrow and the letter “a.” The pressure steadily rises to a maximum of about 41 mm Hg at 27 minutes. […] The protein content in the aqueous humor was labeled with a fluorescent marker, carboxyfluorescein succinimidyl ester (CFSE, marked with black arrows in FIG. 2). The circles are pillars in the restriction channel.
Example 2. […]

[4] = pre-incubated at 37° C. for 24 hours, placebo buffered saline, concentration not given

EC50 [2]	Compound	IOP after injection of agent, lower than for placebo [1, 4]	further results
–	CC(C)(C)C(=O)OCOP(=O)(COCCn1cnc2c(N)ncnc21)OCOC(=O)C(C)(C)C [adefovir dipivoxil]	up to 73%	–
169 nM	Nc1ncnc2c1ncn2CCOCP(=O)(O)O [adefovir, ((2-(6-amino-9H-purin-9-yl)ethoxy)methyl)phosphonic acid]	–	–
11300 nM	CC(C)(C)NC(=O)N[C@H](C(=O)N1C[C@H]2[C@@H]([C@H]1C(=O)NC(CC1CCC1)C(=O)C(N)=O)C2(C)C)C(C)(C)C (some centres unmarked) [boceprevir]	up to 67%	–
–	CCCCCCCCCCCCCCCC[n+]1ccccc1 [cetylpyridinium chloride, 1-hexadecylpyridin-1-ium]	–	IOP after injection of agent, lower than for placebo ([1]; 37° C. 24 hours, cetylpyridinium chloride 43 mg/ml): ≤ 100%
213 nM	CC[C@@H](C(N)=O)N1CCCC1=O [levetiracetam]	up to 62%	–
–	NC[C@@H]1OC(O[C@H]2[C@@H](O)[C@H](O[C@@H]3[C@@H](O)[C@H](N)C[C@H](N)[C@H]3OC3O[C@H](CN)[C@@H](O)[C@H](O)[C@H]3N)O[C@@H]2CO)[C@H](N)[C@@H](O)[C@@H]1O (some centres unmarked) [neomycin]	–	IOP after injection of agent, lower than for placebo ([1]; 37° C. 24 hours, neomycin sulfate 35 mg/ml): 72%
–	COC(=O)N[C@H](C(=O)N1CCC[C@H]1C(=O)Nc1ccc([C@@H]2CC[C@@H](c3ccc(NC(=O)[C@@H]4CCCN4C(=O)[C@@H](NC(=O)OC)C(C)C)cc3)N2c2ccc(C(C)(C)C)cc2)cc1)C(C)C [ombitasvir]	–	IOP after injection of compound compared with placebo ([1]; 37° C. 24 hours, concentration not given): significantly higher than for placebo
–	CC(C)N(CCNC(=O)CN1CCCC1=O)C(C)C [pramiracetam, N-[2-[di(propan-2-yl)amino]ethyl]-2-(2-oxopyrrolidin-1-yl)acetamide]	up to 44%	–
–	CCCCCCCCCCCCOS(=O)(=O)[O-].[Na+] [sodium dodecyl sulfate]	–	IOP after injection of compound compared with placebo ([1]; 37° C. 24 hours, sodium dodecyl sulfate 24 mg/ml): significantly higher than for placebo
–	CN(C)CCCN1c2ccccc2Sc2ccc(C(F)(F)F)cc21 [triflupromazine]	up to 40%	–
18 nM	H-TPPT-NH2 [rapastinel TFA]	up to 82%	–
0.36 nM	colistin sulfate	up to 97%	IOP after injection of agent, lower than for placebo [3]: up to 40%
–	heparin sodium	–	IOP after injection of agent, lower than for placebo ([1]; 37° C. 24 hours, heparin sodium 10 mg/ml): 32%

Compound	EC50 [2]	IOP after injection of agent, lower than for placebo [1, 4]	further results
CCC(C)CCCCC(=O)NC(CCN)C(=O)NC(C(=O)NC(CCN)C(=O)NC1CCNC(=O)C(C(C)O)NC(=O)C(CCN)NC(=O)C(CCN)NC(=O)C(CC(C)C)NC(=O)C(Cc2ccccc2)NC(=O)C(CCN)NC1=O)C(C)O (centres unmarked) [polymyxin B sulfate] ({Octanoyl(6-Me)}-[Dab]T[Dab][Dab][Dab]FL[Dab][Dab]T; lactam 4-C; configuration not given here)	4.3 nM	–	IOP after injection of agent, lower than for placebo ([1]; 37° C. 24 hours, Polymyxin B sulfate 10 mg/ml): 78%
